Measured values: patent US20180264134A1, “A COMPOSITION OF GOLD NANOPARTICLES HAVING ANTIMICROBIAL PEPTIDES BOUND ON THEIR SURFACE FOR USE THE TREATMENT OF WOUND HEALING OR IN THE TREATMENT OF ISCHEMIC OR VASCULAR DISEASES OR IN THE TREATMENT OF SKIN DISORDERS” (priority 2015, published 2018)
In brackets after ≈: the same amount, converted by molar mass. Several values for one entry are separate records, joined by “and”; a condition that tells them apart may be missing. Equal values may be shown once.

Columns and labels:
HaCaT keratinocyte cells = test: Internalization mechanism (endocytosis inhibitors / siRNA, flow cytometry); format: cell-based, human; conditions: vs scrambled siRNA
Method: In an embodiment the HaCaT keratinocyte cells were cultured on 24 well plates (1×10^6 cells/well) and inhibited by one of the following chemicals during 30 min before adding a suspension of Rhodamine-labelled NPs (15 μg/mL): dynasor (100 μM), cytochalasin D (100 μM), nocodazole (25 uM), filipin III (1 μM) and polyinosinic acid (100 μg/mL), 5-(N-ethyl-N-isopropyl)amiloride (EIPA), dextran sulfate. The inhibitor concentrations were based in values reported in literature and further validated by us to have no cytotoxic effect over the period of the assay (6 h), as confirmed by viability assay. The incubation of the cells with NPs for different times was performed in the presence of the inhibitor. As controls, HaCaT keratinocyte cells without NPs and cells incubated with NPs without inhibitor were used. […] Cells were then evaluated as before.
In an embodiment the NP uptake mechanism was also studied on HaCaT keratinocyte cells by silencing specific proteins of clathrin-mediated endocytosis (CLTC and LDLR), caveolin-mediated endocytosis (CAV1), GEEC-CCLIC pathways (CDC42) and macropinocytosis (RAC1 and CTBP1) and scavenger receptor (SCARA3) by siRNA (Thermo Fisher). […] In all FACS analysis, a total of 10,000 events were recorded per run. […]

[1] = test system: Escherichia coli (ATCC 25922); format: cell-based; conditions: 10^5 CFU of E. coli
Method: The antimicrobial activity testing may be: Escherichia coli (ATCC 25922) was grown at 37° C. and maintained on LB plates (Luria-Bertani broth with 1.5% agar). […] Aliquots (100 μL) were taken out from the respective suspensions at 2 h intervals and diluted in PBS buffer to give 10^3 bacteria per mL and plated on LB agar plates followed by incubation at 37° C. Colonies were counted after 24 h of incubation. The collected supernatant was tested for antimicrobial activity as described above.

[2] = test system: full-thickness excisional wounds; test: In vivo wound healing, splinted mouse full thickness excisional model; parameters: species or system RjHan:NMRI female mice
Text: For measure some parameters In vivo wound healing and tissue collection can be use. 6-7 week old RjHan:NMRI female mice (Janvier, BE) were anesthesized with isoflurane and the dorsal area was shaved using a depilatory cream a day before the surgery. Two 0.5-mm-thick silicone (Grace biolabs, UK) donut-shaped splints (OD=20 mm, ID=10 mm) were fixed on either side of the dorsal midline, approximately 3.5 cm from the ears and positioned with 6-0 nylon sutures (Monosof, USA). Full-thickness excisional wounds were made using an 8 mm round skin biopsy punch (Kai Europe GMBH, DE), centered within each splint. […] Wound areas were quantified using the Jmicro Vision software developed by N. Roduit at University of Geneva, Switzerland. Wound sizes are expressed as percentage of the initial respective wound. […]
In an embodiment, histology and immunohistochemistry assay were conducted: the wound halves were immediately fixed with paraformaldehyde (4% in PBS, 0.01 M, pH 7.4) and after 24 h, the samples were transferred to PBS buffer at 4° C. […] A semi-quantitative estimation of MT green staining was performed using FRIDA software (developed by Johns Hopkins University, USA) and the staining values were expressed as staining per unit area. […]

Compound: CC[C@H](C)[C@H](NC(=O)[C@H](CCCCN)NC(=O)[C@H](CCC(=O)O)NC(=O)[C@H](CCCCN)NC(=O)[C@H](CO)NC(=O)[C@H](CCCCN)NC(=O)[C@H](CCCNC(=N)N)NC(=O)[C@H](Cc1ccccc1)NC(=O)[C@H](Cc1ccccc1)NC(=O)[C@H](CC(=O)O)NC(=O)CNC(=O)[C@H](CC(C)C)NC(=O)[C@@H](N)CC(C)C)C(=O)NCC(=O)N[C@@H](CCCCN)C(=O)N[C@@H](CCC(=O)O)C(=O)N[C@@H](Cc1ccccc1)C(=O)N[C@@H](CCCCN)C(=O)N[C@@H](CCCNC(=N)N)C(=O)N[C@H](C(=O)N[C@H](C(=O)N[C@@H](CCC(N)=O)C(=O)N[C@@H](CCCNC(=N)N)C(=O)N[C@H](C(=O)N[C@@H](CCCCN)C(=O)N[C@@H](CC(=O)O)C(=O)N[C@@H](Cc1ccccc1)C(=O)N[C@@H](CC(C)C)C(=O)N[C@@H](CCCNC(=N)N)C(=O)N[C@@H](CC(N)=O)C(=O)N[C@@H](CC(C)C)C(=O)N[C@H](C(=O)N1CCC[C@H]1C(=O)N[C@@H](CCCNC(=N)N)C(=O)N[C@H](C(=O)N[C@@H](CCC(=O)O)C(=O)N[C@@H](CO)C(=O)N[C@@H](CS)C(N)=O)[C@@H](C)O)C(C)C)[C@@H](C)CC)C(C)C)[C@@H](C)CC [LL37]
- reduction of uptake upon SCARA3 siRNA knockdown (HaCaT keratinocyte cells): 60%
- minimal inhibition concentration (MIC) [1]: 5 µg/mL (≈ 1.09 µM)
- wound healing ([2]; after 10 days, LL37 70 μg per wound, listed as LL37 peptide): 50% and 70%
- MPO activity in wound tissue ([2]; day 10): significantly decreased
